Reference: article PMC3836372 (Biochemical and biophysical research communications, 2013)

Target: BmorOR1·BmorOrco (Bombyx mori, UniProt Q5WA61, P178A)
Assay type: cell-based
Settings: agonist; co-expressed with BmorOrco; 0.1% DMSO; -80 mV

**Q.** For `CCC/C=C\C=C\CCCCCCCCCO` [bombykol, (10E,12Z)-hexadecadien-1-ol], which “two-electrode voltage clamp, Xenopus oocytes, dose-response of odorant-induced c” value is on record?
**A.** the effect on P178A-BmorOR1 was moderate
